Source: paper PMC4159853 (2014)

Columns and labels:
[1] = test system: R12.23 (DNA, aptamer) TGTACCGTCTGAGCGATTCGTACGAACGGCTTTGTACTGTTTGCACTGGCGGATTTAGCCAGTCAGTGTTAAGGAGTGC; experiment: competitive elution of fluorescent ssDNA from target beads; settings: 100 mM NaCl, 2 mM MgCl2; 20 mM Tris-HCl, 10% methanol; 100 µM eluent, 5 nM ssDNA; buffer alone 0.15; from immobilised desethyl atrazine
[2] = test system: R12.23 (DNA, aptamer) TGTACCGTCTGAGCGATTCGTACGAACGGCTTTGTACTGTTTGCACTGGCGGATTTAGCCAGTCAGTGTTAAGGAGTGC; experiment: fluorescence saturation bead-based binding assay; settings: 100 mM NaCl, 2 mM MgCl2; immobilised compound; 20 mM Tris-HCl, 10% methanol; reported by authors as Kd for atrazine
[3] = test system: R12.28 (DNA, aptamer) TGTACCGTCTGAGCGATTCGTACCATTAGTGGGTGCTCCTTACCTGATGGTCATCTAGCCAGTCAGTGTTAAGGAGTGC; experiment: fluorescence saturation bead-based binding assay; settings: 100 mM NaCl, 2 mM MgCl2; immobilised compound; 20 mM Tris-HCl, 10% methanol; reported as Kd for atrazine; some non-specific bead binding
[4] = test system: R12.57 (DNA, aptamer) TGTACCGTCTGAGCGATTCGTACGGATTGGGTTTGCACTTTACCTGCGGTGCATCGCAGCCAGTCAGTGTTAAGGAGTGC; experiment: fluorescence saturation bead-based binding assay; settings: 100 mM NaCl, 2 mM MgCl2; immobilised compound; 20 mM Tris-HCl, 10% methanol; reported as Kd for atrazine; some non-specific bead binding
[5] = test system: 34-base truncation of R12.23 (DNA, aptamer) TACTGTTTGCACTGGCGGATTTAGCCAGTCAGTG; experiment: bead capture from processed river water, capillary electrophoresis quantification; settings: 100 mM NaCl, 2 mM MgCl2; 20 mM Tris-HCl; extract of river water spiked with 40 nM; 37% (1.5 nmol) recovered

| SMILES | Normalized Average Fluorescence [1] | also measured |
| --- | --- | --- |
| O=C(O)COc1ccc(Cl)cc1Cl | 0.64 ± 0.11 | – |
| CCC(=O)Nc1ccc(Cl)c(Cl)c1 | 0.65 ± 0.13 | – |
| CC(C)Nc1nc(N)nc(Cl)n1 | −0.054 ± 0.44 | – |
| CCNc1nc(Cl)nc(NCC)n1 | 0.47 ± 0.14 | – |
| CC(C)Nc1nc(Cl)nc(NC(=O)CCCCCNC(=O)CCCC[C@@H]2SC[C@@H]3NC(=O)N[C@@H]32)n1 | – | Kd [2]: 0.62 ± 0.21 nM; Kd [3]: 5.10 ± 1.32 nM; Kd [4]: 20.78 ± 4.74 nM |
| Nc1nc(N)nc(Cl)n1 | 0.47 ± 0.10 | – |
| CCNc1nc(Cl)nc(NC(C)C)n1 | 1 ± 0.11 | binding [5]: yes |
